According to patent publication US8129366B2, “VLA-4 inhibitory drug” (Daiichi Sankyo Company, Limited, priority 2005, dated 2012):

Biological target: T1, hα4 and β1 integrins (Homo sapiens, UniProt P05556+P13612)
T1 construct: expressed in transfected cells; host or cells: CHO cells
Experiment: In vitro inhibition of binding between CHO cells expressing hα4 and β1 integrins and Eu3+-hVCAM-1 D1D7-IgG
Details: for Ki: CHO cells expressing hα4 and β1 integrins, Eu3+-hVCAM-1 D1D7-IgG ligand, without HSA; for IC50: in the presence of 3% human serum albumin (HSA final concentration 3%)
Outline: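 Transfected CHO cells, cultured 2 days, were incubated with compound and Eu³⁺-hVCAM-1 D1D7-IgG (diluted to 2 nM) for 1 h at room temperature. Buffer was 25 mM HEPES pH 7.5 with 1 mM Ca²⁺, 1 mM Mg²⁺, 4 mM Mn²⁺ and 0.1% BSA, ±3% HSA final. Cells were washed at 4 °C and read by DELFIA time-resolved fluorescence; Ki was derived from IC50 using the Scatchard Kd.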

T1 sequence (P13612 34-1032): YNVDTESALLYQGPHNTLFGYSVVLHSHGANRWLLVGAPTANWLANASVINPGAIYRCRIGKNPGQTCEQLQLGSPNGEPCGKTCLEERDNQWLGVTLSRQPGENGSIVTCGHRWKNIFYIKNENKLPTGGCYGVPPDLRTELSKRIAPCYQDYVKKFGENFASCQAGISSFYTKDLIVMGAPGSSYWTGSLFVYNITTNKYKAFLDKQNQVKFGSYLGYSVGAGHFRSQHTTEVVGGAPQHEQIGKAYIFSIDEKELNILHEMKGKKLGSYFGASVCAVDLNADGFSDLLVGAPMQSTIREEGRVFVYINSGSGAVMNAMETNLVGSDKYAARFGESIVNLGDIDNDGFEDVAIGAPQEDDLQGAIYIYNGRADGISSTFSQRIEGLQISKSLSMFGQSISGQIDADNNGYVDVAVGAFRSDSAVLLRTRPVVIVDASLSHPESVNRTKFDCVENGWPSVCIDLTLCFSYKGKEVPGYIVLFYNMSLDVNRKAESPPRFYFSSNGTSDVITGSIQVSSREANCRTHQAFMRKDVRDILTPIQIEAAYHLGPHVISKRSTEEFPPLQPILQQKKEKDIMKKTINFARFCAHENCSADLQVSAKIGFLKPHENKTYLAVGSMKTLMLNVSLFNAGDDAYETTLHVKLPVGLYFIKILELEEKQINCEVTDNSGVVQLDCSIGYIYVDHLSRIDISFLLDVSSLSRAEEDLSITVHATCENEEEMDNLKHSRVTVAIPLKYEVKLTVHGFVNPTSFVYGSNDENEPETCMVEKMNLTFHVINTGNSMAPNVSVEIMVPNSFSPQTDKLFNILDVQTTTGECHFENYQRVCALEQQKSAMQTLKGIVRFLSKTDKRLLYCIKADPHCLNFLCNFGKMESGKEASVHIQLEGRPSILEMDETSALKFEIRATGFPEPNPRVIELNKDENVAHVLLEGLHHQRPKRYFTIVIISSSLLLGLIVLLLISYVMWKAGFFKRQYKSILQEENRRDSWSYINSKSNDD
T1 sequence (P05556 21-798): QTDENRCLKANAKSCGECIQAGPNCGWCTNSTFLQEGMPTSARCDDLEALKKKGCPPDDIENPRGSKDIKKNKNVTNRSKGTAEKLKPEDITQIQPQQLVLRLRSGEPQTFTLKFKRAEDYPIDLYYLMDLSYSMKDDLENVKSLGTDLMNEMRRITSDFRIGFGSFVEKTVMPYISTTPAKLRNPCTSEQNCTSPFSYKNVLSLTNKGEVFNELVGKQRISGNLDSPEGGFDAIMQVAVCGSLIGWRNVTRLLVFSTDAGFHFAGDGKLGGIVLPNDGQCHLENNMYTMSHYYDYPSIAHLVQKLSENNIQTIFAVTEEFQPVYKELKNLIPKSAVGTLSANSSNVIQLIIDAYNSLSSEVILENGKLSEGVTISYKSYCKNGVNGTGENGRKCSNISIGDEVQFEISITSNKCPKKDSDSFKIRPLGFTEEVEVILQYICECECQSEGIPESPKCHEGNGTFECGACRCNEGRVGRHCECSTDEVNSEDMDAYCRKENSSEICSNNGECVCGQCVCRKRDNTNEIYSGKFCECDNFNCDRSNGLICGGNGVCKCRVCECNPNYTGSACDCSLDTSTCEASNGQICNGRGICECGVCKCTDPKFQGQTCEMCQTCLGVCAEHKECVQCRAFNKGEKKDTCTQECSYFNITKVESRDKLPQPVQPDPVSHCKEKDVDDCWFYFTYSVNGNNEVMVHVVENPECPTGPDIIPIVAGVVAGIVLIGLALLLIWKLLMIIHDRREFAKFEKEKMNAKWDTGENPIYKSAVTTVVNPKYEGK

Compound | Ki [nM] | IC50 [nM]
CC1(C)O[C@H]2CN([C@H]3C[C@@H](CO[C@H]4CC[C@H](C(=O)O)CC4)N(C(=O)Cc4cc(Cl)c(NC(=O)c5csc6ccccc56)cc4Cl)C3)C[C@H]2O1 [Example 75, Trans-4-[1-[[4-[(benzo[b]thiophen-3-ylcarbonyl)amino]-2,5-dichlorophenyl]acetyl]-(4S)-[(3a,6a-cis)-2,2-dimethyltetrahydro[1,3]dioxo[4,5-c]pyrrol-5-yl]-(2S)-pyrrolidinylmethoxy]cyclohexanecarboxylic acid] | 0.52 | 12
O=C(Nc1cc(F)c(CC(=O)N2C[C@@H](N3CCCOCC3)C[C@H]2CO[C@H]2CC[C@H](C(=O)O)CC2)cc1Cl)c1coc2ccccc12 [Example 168, Trans-4-[1-[[4-[(benzo[b]furan-3-ylcarbonyl)amino]-5-chloro-2-fluorophenyl]acetyl]-(4S)-([1,4]-oxazepan-4-yl)-(2-S)-pyrrolidinylmethoxy]cyclohexanecarboxylic acid] | 2 | 9.4
Cn1cc(C(=O)Nc2cc(Cl)c(CC(=O)N3C[C@@H](N4CCN(C(C)(C)CF)CC4)C[C@H]3CO[C@H]3CC[C@H](C(=O)O)CC3)cc2Cl)c2ccccc21 [Example 119, Trans-4-[1-[[2,5-dichloro-4-[(1-methyl-1H-indol-3-ylcarbonyl)amino]phenyl]acetyl]-(4S)-[4-(1,1-dimethyl-2-fluoroethyl)piperazin-1-yl]-(2S)-pyrrolidinylmethoxy]cyclohexanecarboxylic acid] | 4.5 | 20
COC[C@H]1CC[C@H](COC)N1[C@H]1C[C@@H](CO[C@H]2CC[C@H](C(=O)O)CC2)N(C(=O)Cc2cc(Cl)c(NC(=O)c3csc4ccccc34)cc2F)C1 [Example 49] | 4 | 62
CO[C@H]1CN([C@H]2C[C@@H](CO[C@H]3CC[C@H](C(=O)O)CC3)N(C(=O)Cc3cc(Cl)c(NC(=O)c4cn(C)c5ccccc45)cc3Cl)C2)C[C@H]1OC [Example 56, Trans-4-[1-[[2,5-dichloro-4-[(1-methyl-1H-indol-3-ylcarbonyl)amino]phenyl]acetyl]-(4S)-(cis-3,4-dimethoxypyrrolidin-1-yl)-(2S)-pyrrolidinylmethoxy]cyclohexanecarboxylic acid] | 2.4 | 9.2
Cn1cc(C(=O)Nc2cc(Cl)c(CC(=O)N3C[C@@H](N4CCN(C(=O)C(C)(C)C)CC4)C[C@H]3CO[C@H]3CC[C@H](C(=O)O)CC3)cc2Cl)c2ccccc21 [Example 149, Trans-4-[1-[[2,5-dichloro-4-[(1-methyl-1H-indol-3-ylcarbonyl)amino]phenyl]acetyl]-(4S)-(4-pivaloylpiperazin-1-yl)-(2S)-pyrrolidinylmethoxy]cyclohexanecarboxylic acid] | 1.7 | 24
O=C(Nc1cc(F)c(CC(=O)N2C[C@@H](N3CCN(Cc4ccccc4)CC3)C[C@H]2CO[C@H]2CC[C@H](C(=O)O)CC2)cc1Cl)c1csc2ccccc12 [Example 116, Trans-4-[(4S)-(4-benzylpiperazin-1-yl)-1-[[4-[(benzo[b]thiophen-3-ylcarbonyl)amino]-5-chloro-2-fluorophenyl]acetyl]-(2S)-pyrrolidinylmethoxy]cyclohexanecarboxylic acid] | 0.6 | 21
CO[C@H]1CN([C@H]2C[C@@H](CO[C@H]3CC[C@H](C(=O)O)CC3)N(C(=O)Cc3cc(Cl)c(NC(=O)c4cn(C)c5ccccc45)cc3F)C2)C[C@H]1OC [Example 55, Trans-4-[1-[[5-chloro-2-fluoro-4-[(1-methyl-1H-indol-3-ylcarbonyl)amino]phenyl]acetyl]-(4S)-(cis-3,4-dimethoxypyrrolidin-1-yl)-(2S)-pyrrolidinylmethoxy]cyclohexanecarboxylic acid] | 2.6 | 9.2
O=C(Nc1cc(F)c(CC(=O)N2C[C@@H](N3CCC4(CC4)C3)C[C@H]2CO[C@H]2CC[C@H](C(=O)O)CC2)cc1Cl)c1csc2ccccc12 [Example 39, Trans-4-[(4S)-(5-azaspiro[2.4]heptan-5-yl)-1-[[4-[(benzo[b]thiophen-3-ylcarbonyl)amino]-5-chloro-2-fluorophenyl]acetyl]-(2S)-pyrrolidinylmethoxy]cyclohexanecarboxylic acid] | 0.64 | 4.9
Cn1cc(C(=O)Nc2cc(Cl)c(CC(=O)N3C[C@@H](N4CCN(CC(F)(F)F)CC4)C[C@H]3CO[C@H]3CC[C@H](C(=O)O)CC3)cc2Cl)c2ccccc21 [Example 122, Trans-4-[1-[[2,5-dichloro-4-[(1-methyl-1H-indol-3-ylcarbonyl)amino]phenyl]acetyl]-(4S)-[4-(2,2,2-trifluoroethyl)piperazin-1-yl]-(2S)-pyrrolidinylmethoxy]cyclohexanecarboxylic acid] | 8.8 | 36
Cn1cc(C(=O)Nc2ccc(CC(=O)N3C[C@@H](N4CCN(CC(F)(F)F)CC4)C[C@H]3CO[C@H]3CC[C@H](C(=O)O)CC3)cc2Cl)c2ccccc21 [Example 130, Trans-4-[1-[[3-chloro-4-[(1-methyl-1H-indol-3-ylcarbonyl)amino]phenyl]acetyl]-(4S)-[4-(2,2,2-trifluoroethyl)piperazin-1-yl]-(2S)-pyrrolidinylmethoxy]cyclohexanecarboxylic acid] | 2.7 | 7.5
Cn1cc(C(=O)Nc2cc(F)c(CC(=O)N3C[C@@H](N4CC5CC4CO5)C[C@H]3CO[C@H]3CC[C@H](C(=O)O)CC3)cc2Cl)c2ccccc21 (stereo partly drawn) [Example 163, Trans-4-[1-[[5-chloro-2-fluoro-4-[(1-methyl-1H-indol-3-ylcarbonyl)amino]phenyl]acetyl]-(4S)-[(1S,4S)-2-oxa-5-azabicyclo[2.2.1]heptan-5-yl]-(2S)-pyrrolidinylmethoxy]cyclohexanecarboxylic acid] | 6.4 | 36
Cn1cc(C(=O)Nc2cc(Cl)c(CC(=O)N3C[C@@H](N4CCN(CC(F)F)CC4)C[C@H]3CO[C@H]3CC[C@H](C(=O)O)CC3)cc2Cl)c2ccccc21 [Example 120, Trans-4-[1-[[2,5-dichloro-4-[(1-methyl-1H-indol-3-ylcarbonyl)amino]phenyl]acetyl]-(4S)-[4-(2,2-difluoroethyl)piperazin-1-yl]-(2S)-pyrrolidinylmethoxy]cyclohexanecarboxylic acid] | 3.8 | 16
O=C(Nc1cc(F)c(CC(=O)N2C[C@@H](N3CC(CF)C3)C[C@H]2CO[C@H]2CC[C@H](C(=O)O)CC2)cc1Cl)c1coc2ccccc12 [Example 13, Trans-4-[1-[[4-[(benzo[b]furan-3-ylcarbonyl)amino]-5-chloro-2-fluorophenyl]acetyl]-(4S)-[3-(fluoromethyl)azetidin-1-yl]-(2S)-pyrrolidinylmethoxy]cyclohexanecarboxylic acid] | 7.7 | 64
CC(=O)N1CCN([C@H]2C[C@@H](CO[C@H]3CC[C@H](C(=O)O)CC3)N(C(=O)Cc3cc(Cl)c(NC(=O)c4csc5ccccc45)cc3F)C2)CC1 [Example 148, Trans-4-[1-[[4-[(benzo[b]thiophen-3-ylcarbonyl)amino]-5-chloro-2-fluorophenyl]acetyl]-(4S)-(4-acetylpiperazin-1-yl)-(2S)-pyrrolidinylmethoxy]cyclohexanecarboxylic acid] | 0.53 | 2.8
